Assay results as given in US11952328B2, “Selective ship inhibitors for treating disease” (THE RESEARCH FOUNDATION FOR THE STATE UNIVERSITY OF NEW YORK, priority 2018, dated 2024).
Entries after “also recorded” stand apart in the source; their conditions may differ.

Experiments:
[1] = tested on: RMA-Rael cells; experiment: Acute rejection of RMA-Rael lymphoma, tumor burden by peritoneal lavage; format: in vivo, mice
Description: FIGS. 4A-4D show the effects of SHIP1 inhibition using 3AC in mice. 5×10^5 GFP-expressing RMA-Rael cells were injected into C57BL/6 (FIG. 4A), RAG1−/− (FIG. 4B), or into C57BL/6 hosts (FIG. 4C-4D) with antibody depleted (NK) or intact (Iso) NK cell compartment. Mice were treated with either SHIP inhibitor or vehicle for two days. Tumor burden was determined by flow cytometric analysis of peritoneal cavity contents recovered by peritoneal lavage performed on the third day. Graphs represent pooled data from two independent experiments using at least 4 SHIP inhibitor-treated mice and 4 vehicle-treated mice in each experiment. FIG. 4A (p=0.0433; Mann-Whitney U test). FIG. 4B (p=0.0007; Mann-Whitney U test). FIG. 4C (p=0.0153; Unpaired t test with Welch's correction). FIG. 4D (p=0.9188. Mann-Whitney U test).
To determine if acute SHIP inhibitor treatment promoted in vivo clearance of tumor cells expressing a ligand for such receptors, the ability of SHIP inhibitor treatment to increase host rejection of tumor targets in vivo using the C57BL/6-derived H2b T cell lymphoma, RMA-Rael was analyzed. NK cell mediated rejection of RMA- Rael cells requires perforin expression and is independent of IFNγ production, and thus this assay allows for interrogation of a different NK cell effector function than that analyzed in FIG. 3 (Hayakawa, Y. et al., Cutting edge: tumor rejection mediated by NKG2D receptor-ligand interaction is dependent upon perforin. J Immunol. (2002); 169: 5377-538). Mice were challenged with syngeneic tumor cells followed by treatment with 3AC or vehicle for 2 consecutive days. On the third day peritoneal lavage was performed to evaluate tumor burden. […] To assess whether NK cells contributed to acute tumor rejection the same experiment using NK cell depleted C57BL/6 hosts (DNK) was performed. […] This increase in tumor burden was not seen in vehicle treated mice that were also depleted of NK cells (FIG. 4D).

[2] = tested on: tumor; experiment: Adoptive transfer of hematolymphoid cells from 3AC treated long-term survivors, survival after tumor challenge; format: in vivo, mice; conditions: cells from tumor challenged, 3AC treated long-term surviving donor vs naive donor; recipients not treated
Text: To test for continued presence of such immunity, hematolymphoid cells were adoptively transferred from either a nave donor or from a tumor challenged, 3AC treated, long-term surviving (primed) donor into nave C57BL/6 hosts.

[3] = tested on: CT26; experiment: CT26 viability following in vitro treatment; format: cell-based, mice; conditions: in vitro 24 h; only 20 μM vs 0 μM adjusted p=0.0463, other concentrations N.S.
Description: FIG. 7A and FIG. 7B show CT26 (FIG. 7A) and MC-38 (FIG. 7B) viability following in vitro treatment with 3AC for 24 h at indicated doses. Relative viability is expressed as frequency compared to solvent only treated cells. Kill curve summarizes pooled data from three independent experiments using six replicate wells/concentration with mean±SEM indicated. BALB/C mice were challenged with subcutaneous injection of CT26 colon carcinoma cells in the right flank. Mice were treated with either 2 consecutive days of 3AC or vehicle control each week as in FIG. 4A. Tumor size at […] 28 days (FIG. 7C), and tumor weight on day 28 determined after dissection of tumor (FIG. 7E). […] C57BL/6 mice were challenged with subcutaneous injection of MC-38 colon carcinoma cells in the right flank. Mice were treated with either 2 consecutive days of SHIP inhibitor or vehicle control each week as in FIG. 4A. Tumor size at 14, 21 and 25 days (FIG. 7D), and tumor weight (FIG. 7F) on day 25 were determined after dissection of tumor. […] FIG. 7A (n=18 per group. One-way ANOVA with Dunnett's multiple comparisons. 0 μM vs. 20 μM Adjusted p value=0.0463. All other concentrations of SHIP inhibitor compared with solvent only N.S.). FIG. 7B (n=18 per group. One-way ANOVA with Dunnett's multiple comparisons. All concentrations of SHIP inhibitor compared with solvent only N.S.). […]

[4] = tested on: MC-38 colon carcinoma cells; experiment: Subcutaneous MC-38 colon carcinoma model; format: in vivo, C57BL/6 mice
Description: FIG. 7A and FIG. 7B show CT26 (FIG. 7A) and MC-38 (FIG. 7B) viability following in vitro treatment with 3AC for 24 h at indicated doses. Relative viability is expressed as frequency compared to solvent only treated cells. Kill curve summarizes pooled data from three independent experiments using six replicate wells/concentration with mean±SEM indicated. BALB/C mice were challenged with subcutaneous injection of CT26 colon carcinoma cells in the right flank. Mice were treated with either 2 consecutive days of 3AC or vehicle control each week as in FIG. 4A. Tumor size at […] 28 days (FIG. 7C), and tumor weight on day 28 determined after dissection of tumor (FIG. 7E). […] C57BL/6 mice were challenged with subcutaneous injection of MC-38 colon carcinoma cells in the right flank. Mice were treated with either 2 consecutive days of SHIP inhibitor or vehicle control each week as in FIG. 4A. Tumor size at 14, 21 and 25 days (FIG. 7D), and tumor weight (FIG. 7F) on day 25 were determined after dissection of tumor. […] FIG. 7A (n=18 per group. One-way ANOVA with Dunnett's multiple comparisons. 0 μM vs. 20 μM Adjusted p value=0.0463. All other concentrations of SHIP inhibitor compared with solvent only N.S.). FIG. 7B (n=18 per group. One-way ANOVA with Dunnett's multiple comparisons. All concentrations of SHIP inhibitor compared with solvent only N.S.). FIGS. 7C-7F graphs represent data from one of two independent experiments. FIG. 7C (n=10. Day 14 p<0.0001, Unpaired t test with Welch's correction. Day 21 p<0.0001, two-tailed student's t-test. Day 28 p<0.0001, two-tailed Student's t-test). FIG. 7E (n=10. P<0.0001, two-tailed Student's t-test) FIG. 7D (n=10. Day 14 p=0.0005, two-tailed student's t-test. Day 21 p=0.0009, two-tailed Student's t-test. Day 25 p=0.0009, two-tailed student's t-test). FIG. 7F (n=10. P=0.0067, two-tailed student's t-test).
Colorectal cancer is the second leading cause of cancer mortality in the United States (Siegel, R. L. et al., Colorectal cancer statistics, 2017. CA Cancer J Clin. (2017)). […]

## CC(C)CCC[C@@H](C)[C@H]1CC[C@H]2[C@@H]3CCC4C[C@H](N)CC[C@]4(C)[C@H]3CC[C@]12C (stereo partly drawn) [Compound 3AC, 3-α-aminocholestane]
[1]; 3AC-treated hosts with intact NK cell compartment vs 3AC hosts depleted of NK cells
  tumor rejection: significantly greater tumor rejection
[1]; C57BL/6 hosts depleted of NK cells or not, 3AC vs vehicle
  tumor burden: profound reduction of tumor burden; also recorded: large reduction in tumor burden
[1]; C57BL/6 hosts, 5×10^5 RMA-Rael, 2 consecutive days treatment, lavage on third day, vs vehicle
  lymphoma burden: dramatic reduction
[2]
  survival of recipients of primed hematolymphoid cells: significantly increased survival
[3]
  CT26 viability (direct killing): resistant to direct killing
[4]; day 25, vs vehicle
  tumor weight: significant reduction
[4]; two consecutive days each week, days 14, 21, 25, vs vehicle
  tumor size: significant reduction
[4]; vs vehicle
  histological analysis (H&E) of tumors: prominent zones of tumor cell death
